Results reported in publication PMC2966298 (Journal of medicinal chemistry, 2010).
pIC50: −log10 of the molar value. Entries after “also recorded” stand apart in the source; their conditions may differ.

What was measured:
[1] = target: T1, Human reticulocyte 15-lipoxygenase-1 (15-hLO-1) (Homo sapiens, UniProt P16050); test: Lipoxygenase UV-Vis assay; details: for fold loss in activity against 15-hLO-1 relative to lead 5: compared with compound 5 (19 nM)
T1 sequence (P16050 1-662): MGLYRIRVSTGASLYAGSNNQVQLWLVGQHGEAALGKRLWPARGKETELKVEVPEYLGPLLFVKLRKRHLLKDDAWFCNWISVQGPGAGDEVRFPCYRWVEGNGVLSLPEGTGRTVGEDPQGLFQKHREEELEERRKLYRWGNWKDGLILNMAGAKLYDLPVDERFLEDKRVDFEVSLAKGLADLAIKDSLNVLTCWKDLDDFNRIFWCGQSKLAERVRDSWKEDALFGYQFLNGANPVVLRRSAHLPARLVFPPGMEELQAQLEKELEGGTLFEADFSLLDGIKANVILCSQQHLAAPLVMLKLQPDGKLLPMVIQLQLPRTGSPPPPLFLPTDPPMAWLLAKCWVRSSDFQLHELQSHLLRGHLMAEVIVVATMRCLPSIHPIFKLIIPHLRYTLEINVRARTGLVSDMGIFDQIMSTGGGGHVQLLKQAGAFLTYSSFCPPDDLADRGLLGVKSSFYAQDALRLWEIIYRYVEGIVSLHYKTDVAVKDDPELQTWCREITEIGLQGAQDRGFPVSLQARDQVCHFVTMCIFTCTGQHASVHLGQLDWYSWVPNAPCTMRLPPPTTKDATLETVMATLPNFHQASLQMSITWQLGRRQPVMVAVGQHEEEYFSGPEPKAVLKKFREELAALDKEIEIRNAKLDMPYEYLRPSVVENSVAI

15-hLO-1 [2] = target: T2, 15-hLO-1 (Homo sapiens, UniProt P16050); test: Steady-state inhibition kinetics; details: replot of 1/Vmax vs inhibitor; AA substrate, 0.01% Triton X-100
T2 sequence (P16050 1-662): T1 sequence (P16050 1-662)

15-hLO-1 [3] = target: T2, 15-hLO-1; details: cited from earlier work
[4] = Solubility as noted during biochemical characterization; format: physicochemical; details: noted where Ki^app could not be obtained accurately
15-hLO-1 [5] = target: T2, 15-hLO-1; test: Reversibility of inhibition; format: biochemical; details: 50 μM inhibitor, 10 min incubation, then 2 h dialysis

Fc1ccc(COCC#CCSc2nnc(-c3cccc4ccccc34)o2)cc1 [Analogue 66]
activity against 15-hLO-1 (in words) [1]: complete loss in activity

O=C(OCC#CCSc1nnc(-c2cccc3ccccc23)o1)c1c[nH]cn1 [Analogue 16]
fold loss in activity against 15-hLO-1 relative to lead 5 [1]: approximately 70 fold | Ki’ (dissociation from the secondary site) (15-hLO-1 [2]): 8.1 ± 0.9 µM

O=C(NCC#CCSc1nnc(-c2cccc3ccccc23)o1)c1cccs1 [Analogue 56]
pIC50 [1]: 5.70 | fold loss in activity against 15-hLO-1 relative to lead 5 [1]: 100 fold

O=C(OCC#CCSc1nnc(-c2ccc(F)cc2)o1)c1ccc(F)cc1 [Analogue 47]
pIC50 [1]: > 8.00

COc1ccc(-c2oc3cc(OC)c(OC)c(OC)c3c(=O)c2OC)cc1OC [hexamethoxyflavone]
pIC50 (15-hLO-1 [3]): 4.30

O=C(OCC#CCNc1nnc(-c2cccc3ccccc23)o1)c1cccs1 [Analogue 60]
pIC50 [1]: 5.89

O=C(OCC#CCSc1nnc(-c2cc3ccccc3cc2O)o1)c1ccc(F)cc1 [Analogue 53]
solubility (in words) [4]: low solubility

O=C(OCC#CCSc1nnc(-c2cccc3ccccc23)o1)c1ccccc1F [Analogue 25]
reversibility of inhibition (15-hLO-1 [5]): reversible

O=C(CCC#CCSc1nnc(-c2cccc3ccccc23)o1)c1ccccc1 [Analogue 67]
solubility (in words) [4]: reduced solubility; also recorded: low solubility

O=C(OCC#CCSc1nnc(-c2cccc3ccccc23)s1)c1cccs1 [Analogue 58]
solubility (in words) [4]: noticeably less soluble; also recorded: low solubility

O=C(OCc1ccc(CSc2nnc(-c3cccc4ccccc34)o2)cc1)c1ccc(F)cc1 [Analogue 62]
pIC50 [1]: < 4.00
